Laboratory results from patent US20150284375A1 (AJINOMOTO CO., INC., priority 2012, published 2015).

Biological target: T1, human TRPA1 (Homo sapiens, UniProt O75762)
T1 construct: expressed in transfected cells; host or cells: Human embryonic kidney-derived 293T cells, transiently transfected with the pcDNA3.1/zeo(+) human TRPA1 plasmid
Test: Measurement of TRPA1 antagonist activity (intracellular calcium increase, FLIPR, allylisothiocyanate stimulation)
Assay type: cell-based
Settings: 293T cells transfected with human TRPA1; allylisothiocyanate 20 μM; concentration for 50% inhibitory rate; read-out: antagonism hTRPA1
Summary of the method: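 IC50 derives from a sigmoid fit of inhibition of the 5-min FLIPR fluorescence change evoked by 20 μM allylisothiocyanate, normalized between agonist and buffer responses. Test substance, diluted in HBSS/20 mM HEPES pH 7.2 plus 0.1% BSA, was applied 10 min beforehand at room temperature to Calcium4-loaded 293T cells transiently expressing human TRPA1.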

T1 sequence (O75762 whole entry): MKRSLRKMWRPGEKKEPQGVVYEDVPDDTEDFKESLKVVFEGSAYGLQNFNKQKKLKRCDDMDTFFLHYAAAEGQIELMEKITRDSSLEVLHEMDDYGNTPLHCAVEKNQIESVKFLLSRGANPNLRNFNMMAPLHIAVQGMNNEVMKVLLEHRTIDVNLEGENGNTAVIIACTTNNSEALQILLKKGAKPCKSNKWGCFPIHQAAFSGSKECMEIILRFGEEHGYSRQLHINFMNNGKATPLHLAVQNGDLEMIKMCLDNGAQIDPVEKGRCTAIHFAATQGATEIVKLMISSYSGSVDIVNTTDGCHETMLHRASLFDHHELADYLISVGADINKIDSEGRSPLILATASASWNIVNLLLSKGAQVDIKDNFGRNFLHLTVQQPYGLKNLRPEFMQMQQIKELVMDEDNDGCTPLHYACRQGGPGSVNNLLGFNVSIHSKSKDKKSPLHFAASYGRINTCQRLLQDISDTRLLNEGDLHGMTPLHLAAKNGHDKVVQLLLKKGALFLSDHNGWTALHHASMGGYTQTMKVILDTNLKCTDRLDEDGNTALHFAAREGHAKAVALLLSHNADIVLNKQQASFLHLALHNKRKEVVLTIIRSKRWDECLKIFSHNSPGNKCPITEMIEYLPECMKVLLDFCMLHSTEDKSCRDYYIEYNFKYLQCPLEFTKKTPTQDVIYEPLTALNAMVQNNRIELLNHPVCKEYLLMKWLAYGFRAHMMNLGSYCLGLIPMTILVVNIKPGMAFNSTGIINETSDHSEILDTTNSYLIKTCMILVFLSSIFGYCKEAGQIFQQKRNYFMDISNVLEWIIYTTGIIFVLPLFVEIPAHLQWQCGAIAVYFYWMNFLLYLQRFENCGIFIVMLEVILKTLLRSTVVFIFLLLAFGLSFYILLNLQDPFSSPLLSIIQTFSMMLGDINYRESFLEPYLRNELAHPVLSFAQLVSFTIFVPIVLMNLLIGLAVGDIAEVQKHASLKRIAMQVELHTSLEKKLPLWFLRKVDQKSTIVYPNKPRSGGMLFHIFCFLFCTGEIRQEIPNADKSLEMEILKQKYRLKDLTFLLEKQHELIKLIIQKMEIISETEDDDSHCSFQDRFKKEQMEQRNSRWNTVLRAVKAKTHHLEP

SMILES | IC50
Cc1ccccc1OCc1ccc(CNC(=O)[C@@H]2CCCN2S(=O)(=O)c2ccc(Cl)s2)cc1 [Example 61, (2S)-1-(5-chlorothiophene-2-sulfonyl)-N-({4-[(2-methyl-phenoxy)methyl]phenyl}methyl)pyrrolidine-2-carboxamide] | 0.19 µM
COc1ccccc1OCc1ccc(CNC(=O)[C@@H]2CCCN2S(=O)(=O)c2ccc(Cl)s2)cc1 [Example 62, (2S)-1-(5-chlorothiophene-2-sulfonyl)-N-({4-[(2-methoxy-phenoxy)methyl]phenyl}methyl)pyrrolidine-2-carboxamide] | 1.1 µM
O=C(NCc1ccc(COc2ccccc2F)cc1)[C@@H]1CCCN1S(=O)(=O)c1ccc(Cl)s1 [Example 63, (2S)-1-(5-chlorothiophene-2-sulfonyl)-N-({4-[(2-fluoro-phenoxy)methyl]phenyl}methyl)pyrrolidine-2-carboxamide] | 0.44 µM
O=C(NCc1ccc(COc2ccccc2Cl)cc1)[C@@H]1CCCN1S(=O)(=O)c1ccc(Cl)s1 [Example 64, (2S)-N-({4-[(2-chlorophenoxy)methyl]phenyl}methyl)-1-(5-chlorothiophene-2-sulfonyl)pyrrolidine-2-carboxamide] | 0.48 µM
O=C(NCc1ccc(COc2c(F)cccc2F)cc1)[C@@H]1CCCN1S(=O)(=O)c1ccc(Cl)s1 [Example 65, (2S)-1-(5-chlorothiophene-2-sulfonyl)-N-({4-[(2,6-difluoro-phenoxy)methyl]phenyl}methyl)pyrrolidine-2-carboxamide] | 0.13 µM
COC(=O)c1ccccc1OCc1ccc(CNC(=O)[C@@H]2CCCN2S(=O)(=O)c2ccc(Cl)s2)cc1 [Example 66, methyl 2-((4-({[(2S)-1-(5-chlorothiophene-2-sulfonyl)pyrrolidine-2-carbonyl]amino}methyl)phenyl)methoxy)benzoate] | 0.78 µM
O=C(NCc1ccc(COc2cncc(Cl)c2)cc1)[C@@H]1CCCN1S(=O)(=O)c1ccc(Cl)s1 [Example 67, (2S)-N-({4-[(5-chloro-3-pyridyl)oxymethyl]phenyl}methyl)-1-(5-chlorothiophene-2-sulfonyl)pyrrolidine-2-carboxamide] | 0.73 µM
O=C(NCc1ccc(COc2ccc3ncccc3c2)cc1)[C@@H]1CCCN1S(=O)(=O)c1ccc(Cl)s1 [Example 68, (2S)-1-(5-chlorothiophene-2-sulfonyl)-N-{[4-(6-quinolyloxy-methyl)phenyl]methyl}pyrrolidine-2-carboxamide] | 4.4 µM
O=C(NCc1ccc(COc2cc3ccccc3cn2)cc1)[C@@H]1CCCN1S(=O)(=O)c1ccc(Cl)s1 [Example 69] | 1.8 µM
O=C(NCc1cccc(COc2ccccc2)c1)[C@@H]1CCCN1S(=O)(=O)c1ccc(Cl)s1 [Example 70] | 0.34 µM
O=C(NCc1cccc(COc2ccc(C(F)(F)F)cc2)c1)[C@@H]1CCCN1S(=O)(=O)c1ccc(Cl)s1 [Example 71] | 0.27 µM
CC(NC(=O)[C@@H]1CCCN1S(=O)(=O)c1ccc(Cl)s1)c1ccc(COc2ccccc2)cc1 (stereo partly shown) [Example 72] | 3.8 µM
O=C(NCc1ccc(COc2ccccc2)cc1Cl)[C@@H]1CCCN1S(=O)(=O)c1ccc(Cl)s1 [Example 73] | 0.15 µM
O=C(NCc1ccc(COc2ccc(C(F)(F)F)cc2)cc1Cl)[C@@H]1CCCN1S(=O)(=O)c1ccc(Cl)s1 [Example 74] | 0.18 µM
O=C(NCc1ccc(COc2cccc(C(F)(F)F)c2)cc1Cl)[C@@H]1CCCN1S(=O)(=O)c1ccc(Cl)s1 [Example 75] | 0.14 µM
O=C(NCc1ccc(COc2ccccc2)cc1C(F)(F)F)[C@@H]1CCCN1S(=O)(=O)c1ccc(Cl)s1 [Example 76] | 0.16 µM
O=C(NCc1ccc(COc2ccc(C(F)(F)F)cc2)cc1C(F)(F)F)[C@@H]1CCCN1S(=O)(=O)c1ccc(Cl)s1 [Example 77] | 0.1 µM
O=C(NCc1ccc(COc2cccc(C(F)(F)F)c2)cc1C(F)(F)F)[C@@H]1CCCN1S(=O)(=O)c1ccc(Cl)s1 [Example 78] | 0.12 µM
O=C(NCc1ccccc1COc1ccccc1)[C@@H]1CCCN1S(=O)(=O)c1ccc(Cl)s1 [Example 79] | 2.2 µM
